Tests used:
[1] = molecular target: T1, S. Aureus (Staphylococcus aureus, UniProt P00807); experiment: Antibiotic susceptibility testing by β-LEAF fluorescence in microfluidic device with portable fluorimeter; assay type: cell-based
T1 construct: endogenous in cells
Procedure: In another experiment, fluorometric assay techniques were examined using a microfluidic device (e.g., the microfluidic device 102) and fluorescence images were collected using a portable wide field fluorimeter similar to the system 700 depicted in FIGS. 7A-D. In this experiment, the detection reagent was a 20 μM β-LEAF Bodipy-FL probe solution (2×stock) that was prepared in 40% DMSO in PBS, and an antibiotic solution was a […] penicillin G solution (4×stock) that was prepared by dissolving the antibiotic powder in PBS. Two different types of liquid samples were prepared. A first liquid sample (which included the antibiotic solution) was prepared by combining the 25 μl bacterial suspension, 50 μl of probe 2×stock solution, and 25 μl antibiotic 4×stock solution. […]
Data acquisition involved collecting a fluorescent reading by the camera every 3 seconds. […] Fluorescence was measured in a machine specific standard unit. […]
To analyze image data, a region of interest was selected over an area of bacteria capture corresponding to a chamber of the microfluidic device was the liquid samples were collected. Fluorescence data was extracted in a green channel. […]
The experiment was performed using two liquid samples that were introduced into a microfluidic device and monitored for fluorescence over a 10-minute time period. […]

[2] = molecular target: T2, β-lactamase producing strain (B-lac(+)) (Staphylococcus aureus, UniProt P00807); assay type: cell-based; conditions: B-lac(+) S. aureus, β-LEAF with vs without cefazolin, 60-minute time course, 37° C.
T2 construct: a known β-lactamase producing strain (B-lac(+)); host or cells: S. aureus ATCC control strain, β-lactamase producing (B-lac(+))
T2 sequence (P00807 25-281): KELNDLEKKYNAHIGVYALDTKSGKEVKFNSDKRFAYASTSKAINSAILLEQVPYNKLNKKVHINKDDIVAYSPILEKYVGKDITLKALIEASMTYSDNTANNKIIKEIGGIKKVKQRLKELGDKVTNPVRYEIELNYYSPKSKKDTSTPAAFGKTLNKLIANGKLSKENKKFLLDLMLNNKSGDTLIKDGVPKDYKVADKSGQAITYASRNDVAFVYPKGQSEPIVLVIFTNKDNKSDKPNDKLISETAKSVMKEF
Description: Consequently, the fluorophores are unable to emit fluorescence due to ground state interactions between each other. However, after probe cleavage by β-lactamase, the fluorophores diffuse away from each other, are no longer quenched, and thus regain their fluorescent properties. […] If the assay is repeated in the presence of a cleavable antibiotic that competes with the β-LEAF for β-lactamase cleavage, the rate of β-LEAF cleavage will decrease, resulting in no fluorescence increase.
To encapsulate the data, the suppression of fluorescence change (ΔFs) is defined as (ΔFBL−ΔFBL+antibiotic)/ΔFBL, where ΔFBL and ΔFBL+antibiotic is the fluorescence rate of change of the β-lactamase only and β-lactamase and antibiotic conditions, respectively. […]
Time course assays were carried out with each of the two liquid samples by monitoring β-LEAF cleavage by measuring fluorescence for 60 minutes, at 1 minute intervals using a Spectramax® M5 Plate Reader (Molecular Devices). […] Fluorescence was measured in a machine specific standard unit.
In this example, β-LEAF assays were performed with the two ATCC S. aureus control bacterial strains, a known β-lactamase producing strain (B-lac(+)) and a known β-lactamase non-producing strain (B-lac(−)). […] Four test solutions were prepared and examined for time-course fluorescence intensity changes: […]

T1 sequence (P00807 25-281): as above

| Structure (SMILES) | change of fluorescence intensity over the ten-minute time period ([1]; 50 μl sample, 2.5e6 CFU/ml S. Aureus, fluorescent probe plus Penicillin G) | susceptibility of the antibiotic to cleavage by the bacteria ([1]; S. Aureus, competition with fluorescent probe) | suppression of fluorescence change (ΔFs) [2] |
| --- | --- | --- | --- |
| CC1(C)S[C@@H]2[C@H](NC(=O)Cc3ccccc3)C(=O)N2[C@H]1C(=O)O [Penicillin G] | did not change significantly | vulnerable to cleaving | – |
| Cc1nnc(SCC2=C(C(=O)O)N3C(=O)[C@@H](NC(=O)Cn4cnnn4)[C@H]3SC2)s1 [cefazolin] | – | – | ~1 |

Source: patent US11635379B2, “Portable wide field fluorimeter systems” (priority 2017, dated 2023)
